Experimental data from patent US10294202B2, “Pyrrolidinones as herbicides” (FMC Corporation, priority 2013, dated 2019).

How the values were obtained:
[1] = system: barnyardgrass; assay: Test A pre-/postemergence herbicide test; type: in vivo, Echinochloa crus-galli
Method in brief: (§1)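 Visual injury ratings, 0 = no effect, 100 = complete control, taken ~10 days after treatment against untreated greenhouse controls. Preemergence: directed soil spray onto seeded loam/sand pots. Postemergence: spray onto plants at one- to two-leaf stage, 2–10 cm tall.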

[2] = system: kochia; assay: Test A pre-/postemergence herbicide test; type: in vivo, Kochia scoparia
Method in brief: as §1

[3] = system: ragweed; assay: Test A pre-/postemergence herbicide test; type: in vivo, Ambrosia elatior
Method in brief: as §1

[4] = system: ryegrass, Italian; assay: Test A pre-/postemergence herbicide test; type: in vivo, Lolium multiflorum
Method in brief: as §1

[5] = system: giant foxtail; assay: Test A pre-/postemergence herbicide test; type: in vivo, Setaria faberii
Method in brief: as §1

[6] = system: pigweed; assay: Test A pre-/postemergence herbicide test; type: in vivo, Amaranthus retroflexus
Method in brief: as §1

[7] = system: wheat; assay: Test A pre-/postemergence herbicide test; type: in vivo, Triticum aestivum; conditions: Postemergence
Method in brief: as §1

[8] = system: corn; assay: Test A pre-/postemergence herbicide test; type: in vivo, Zea mays; conditions: Postemergence
Method in brief: as §1

[9] = system: blackgrass; assay: Test A postemergence herbicide test; type: in vivo, Alopecurus myosuroides
Method in brief: (§2)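 Visual injury rating, 0 (no effect) to 100 (complete control), versus untreated controls ~10 days after treatment. Postemergence spray applied at one- to two-leaf stage, plants 2–10 cm tall, potted in loam soil/sand. Greenhouse-held.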

[10] = system: galium; assay: Test A postemergence herbicide test; type: in vivo, Galium aparine
Method in brief: as §2

[11] = system: rice; assay: Test B flooded paddy test; type: in vivo, Oryza sativa; conditions: 500 g ai/ha, Flood; scale of 0 to 100 where 0 is no effect and 100 is complete control
Method in brief: (§3)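 2-leaf plants; flood 3 cm over soil; compound into paddy water; depth held. Greenhouse 13–15 d. Visual rating vs controls, 0 (no effect) to 100 (complete control); dash = not tested.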

[12] = system: sedge, umbrella; assay: Test B flooded paddy test; type: in vivo, Cyperus difformis; conditions: 500 g ai/ha, Flood; scale of 0 to 100 where 0 is no effect and 100 is complete control
Method in brief: as §3

[13] = system: ducksalad; assay: Test B flooded paddy test; type: in vivo, Heteranthera limosa; conditions: 500 g ai/ha, Flood; scale of 0 to 100 where 0 is no effect and 100 is complete control
Method in brief: as §3

[14] = system: barnyardgrass; assay: Test B flooded paddy test; type: in vivo, Echinochloa crus-galli; conditions: 500 g ai/ha, Flood; scale of 0 to 100 where 0 is no effect and 100 is complete control
Method in brief: as §3

[15] = Postemergence, 125 g ai/ha, visual rating on 0 to 100 scale (0 no effect, 100 complete control), approx. 10 days
[16] = Postemergence, 500 g ai/ha, 0 to 100 scale (0 no effect, 100 complete control)
[17] = Preemergence, 125 g ai/ha, 0 to 100 scale where 0 is no effect and 100 is complete control
[18] = Preemergence, 500 g ai/ha, visual rating on 0 to 100 scale (0 no effect, 100 complete control)
[19] = 125 g ai/ha, visual rating on 0 to 100 scale (0 no effect, 100 complete control), approx. 10 days
[20] = 500 g ai/ha, 0 to 100 scale (0 no effect, 100 complete control)

| Compound | Plant response rating, Barnyardgrass [1, 15] | Plant response rating, Barnyardgrass [1, 16] | Plant response rating, Barnyardgrass [1, 17] | Barnyardgrass plant response rating [1, 18] | Plant response rating, Kochia [2, 15] | Plant response rating, Kochia [2, 16] | Plant response rating, Kochia [2, 17] | Kochia plant response rating [2, 18] | Plant response rating, Ragweed [3, 15] | Plant response rating, Ragweed [3, 16] | Plant response rating, Ragweed [3, 17] | Ragweed plant response rating [3, 18] | Plant response rating, Ryegrass, Italian [4, 15] | Plant response rating, Ryegrass, Italian [4, 16] | Plant response rating, Ryegrass, Italian [4, 17] | Ryegrass, Italian plant response rating [4, 18] | Plant response rating, Foxtail, Giant [5, 15] | Plant response rating, Foxtail, Giant [5, 16] | Plant response rating, Foxtail, Giant [5, 17] | Foxtail, Giant plant response rating [5, 18] | further results |
| --- | --- | --- | --- | --- | --- | --- | --- | --- | --- | --- | --- | --- | --- | --- | --- | --- | --- | --- | --- | --- | --- |
| O=C1NCC(c2cccc(Br)c2)C1C(=O)Nc1ccccc1Cl (stereo not drawn) [Compound 311] | 60 | 80 | 70 | 80 | 0 | 0 | 0 | 0 | 0 | 0 | 0 | 0 | 0 | 0 | 0 | 0 | 60 | 70 | 80 | 90 | Plant response rating, Pigweed [6, 15]: 0; Plant response rating, Pigweed [6, 16]: 0; Plant response rating, Pigweed [6, 17]: 0; Pigweed plant response rating [6, 18]: 0; Plant response rating, Wheat [7, 19]: 0; Plant response rating, Wheat [7, 20]: 0; Plant response rating, Corn [8, 19]: 0; Plant response rating, Corn [8, 20]: 0; Plant response rating, Blackgrass [9, 19]: 0; Plant response rating, Blackgrass [9, 20]: 30; Plant response rating, Galium [10, 19]: 0; Plant response rating, Galium [10, 20]: 0; Plant response rating, Rice [11]: 0; Plant response rating, Sedge, Umbrella [12]: 0; Plant response rating, Ducksalad [13]: 98; Plant response rating, Barnyardgrass [14]: 50 |
| CCN1CC(c2ccc(C(F)(F)F)cc2)C(C(=O)Nc2ccccc2F)C1=O (stereo not drawn) [Compound 335] | 20 | 60 | 0 | 50 | 0 | 0 | 40 | 60 | 0 | 0 | 0 | 0 | 0 | 0 | 0 | 0 | 70 | 90 | 70 | 90 | Plant response rating, Pigweed [6, 15]: 0; Plant response rating, Pigweed [6, 16]: 0; Plant response rating, Pigweed [6, 17]: 0; Pigweed plant response rating [6, 18]: 30; Plant response rating, Wheat [7, 19]: 0; Plant response rating, Wheat [7, 20]: 20; Plant response rating, Corn [8, 19]: 0; Plant response rating, Corn [8, 20]: 0; Plant response rating, Blackgrass [9, 19]: 0; Plant response rating, Blackgrass [9, 20]: 20; Plant response rating, Galium [10, 19]: 0; Plant response rating, Galium [10, 20]: 0; Plant response rating, Rice [11]: 0; Plant response rating, Sedge, Umbrella [12]: 0; Plant response rating, Ducksalad [13]: 65; Plant response rating, Barnyardgrass [14]: 0 |
